Results as given in paper PMC6656724 (Communications Biology, 2019).
In brackets after ≈: the same amount, converted by molar mass. Entries after “also recorded” stand apart in the source; their conditions may differ. Where two headings read alike, the source gives them in different places.

Legend:
[1] = tested on: K562 cells; experiment: Competition assay for uptake of riboflavin; assay type: cell-based, Human; design: key to Mean FL2-A, compound only: relative fluorescence units; conditions: for Mean FL2-A, compound + riboflavin (RF): 1 µM riboflavin plus 100 µM compound; for Inhibition of riboflavin uptake: 1 µM riboflavin; for Inhibition of riboflavin uptake / Mean FL2-A, compound only: compound 100 µM
Experimental: Riboflavin transporters are equilibrative rather than concentrative, and the uptake of the inhibitors would be hard to measure directly. To assess whether the KMO inhibitors were substrates for riboflavin transporters, we assessed their ability to compete with riboflavin for uptake into cells. Riboflavin is intensely fluorescent, and is taken up in human cells by three main transporters SLC52A1, SLC52A2 and SLC52A3[28]. […] Consequently, we incubated cells with 1 μM riboflavin in the absence and presence of the various KMO inhibitors. There was a background fluorescence of some 100 relative fluorescence units. […] The data are summarised in Fig. 3c, and are consistent with the view that at least some of the KMO inhibitor uptake is likely to go via riboflavin transporters.
Supplementary Figure 15. A. Uptake of riboflavin into K562 cells. K562 cells were suspended in Dulbecco's phosphate-buffered saline (DPBS) supplemented with 5 mM glucose + 1 % fetal bovine serum (FBS) at a density of 0.5 x 10^6 cells/mL.
Compounds were added to Eppendorf tubes and DMSO removed through drying (vacuum centrifuge). Riboflavin was present at 1 µM and inhibitor 1 or prodrugs at 100 µM. 500 µL cells were added to Eppendorf tubes (containing the compound(s) of interest) and fluorescence measured immediately (excitation 488 nm, emission 525 ± 25nm) in a SONY SH800 flow cytometer over 300 s. Cells were maintained at 37 ℃ throughout in a water bath. Each symbol is the mean fluorescence of ~30 cells observed over a period of 1s. Purple, 1 µM riboflavin only; Red, 100 µM compound only; Blue, 1 µM riboflavin plus 100 µM compound; Green, no additions (control).
Note that the external concentration of riboflavin was rather critical, as the riboflavin transporters also catalyse exchange reactions with their various substrates. B.
Structures of KMO inhibitors and prodrugs and riboflavin, and their maximum common substructures (shown as a blue oval on 1). C. Gating strategy employed in this assay. Gate applied to K562 cell population is marked with a black line. SSC, side scatter, FSC, Forward scatter.
(1 picture or pasted object on this page, not shown here)

[2] = molecular target: T1, Pseudomonas fluorescens KMO (PfKMO) (Pseudomonas fluorescens, UniProt Q84HF5, C252S/C461S); experiment: biochemical
T1 construct: made in house; host or cells: E. coli BL21 (DE3)
Text: (§1) A combination of ligand- and structural-based virtual screening approaches (see supporting information for details) was used to identify an initial library of >1000 compounds that may be suitable as potential KMO inhibitors. These compounds were screened for inhibition of Pseudomonas fluorescens KMO (PfKMO) and Homo sapiens KMO (HsKMO) using high-throughput assays by monitoring the time-dependent oxidation of NADPH at 340 nm[23].
(§2) Small-molecule compounds were supplied by Biofocus (Charles River Laboratories International Inc., MA, USA), which were identified in silico as potential inhibitors (further details are described in the Supplementary Methods). Initial inhibition assays were performed against Pseudomonas fluorescens KMO (PfKMO) and Homo sapiens KMO (HsKMO) by monitoring the time-dependent absorbance change of NADPH at 340 nm. Purified KMO protein (200 nM) was incubated in 100 µL reaction buffer (20 mM potassium phosphate pH 8.0, 7 mM 2-mercaptoethanol) containing 100 μM NADPH, 100 μM L-Kyn and 20 μM potential inhibitors in 96-well plates. […] The inhibitors identified in the initial screens were validated and re-assayed individually in a 1 cm path-length quartz micro cuvette. […] Suppliers for target inhibitor compounds are listed in Supplementary Table 11.
(§3) Supplementary Figure 1. Examples of inhibition data used to generate IC50 values for selected KMO inhibitors. Fixed concentration of L -KYN (200 µM) and NADPH (100µM) were added into reaction buffer (HsKMO: 20mM potassium phosphate pH 8.0, 7 mM 2-mercaptoethanol; PfKMO: 20 mM HEPES, 10mM sodium acetate, pH 7.5, 2mM DTT). The reaction was initiated by the addition of KMO enzyme (HsKMO: 0.5µM; PfKMO: 0.1 µM). KMO activity was measured in the presence of a range of inhibitor concentrations. […]
(§4) 3.5 Steady-state enzymatic assays.
(§5) Initial screening assays and determination of IC50 values for each potential inhibitor compound were carried out using either 0.1 µM PfKMO or 0.5 µM HsKMO at fixed […]
(§6) (HsKMO: 20 mM potassium phosphate pH 8.0, 7 mM 2-mercaptoethanol; PfKMO:
(§7) 20 mM HEPES, 10 mM sodium acetate, pH 7.5, 2 mM DTT). KMO activity was measured in the presence of a range of inhibitor concentrations by monitoring the […]
consumption of NADPH at 340 nm upon addition of enzyme via a Cary 50 UV-Vis spectrophotometer (Agilent Technologies). Rates were determined from linear regression fits to the initial linear portion of the curves. All measurements were performed in triplicate. The IC50 values for inhibitors were obtained by plotting the percentage inhibition versus the inhibitor concentration and fitting to the Morrison equation16 (equation 1) using Origin 9.0 Software (OriginLab, Northampton, MA). […]

[3] = molecular target: T2, Homo sapiens KMO (HsKMO) (Homo sapiens, UniProt O15229); experiment: KMO inhibition assay, NADPH oxidation at 340 nm (HsKMO); assay type: biochemical
T2 construct: GST; made in house
Text: as §1, §2
Supplementary Figure 1. Examples of inhibition data used to generate IC50 values for selected KMO inhibitors.
as §3, with “NADPH” for “Supplementary Figure 1. Examples of inhibition data used to generate IC50 values for selected KMO inhibitors. Fixed concentration of L -KYN (200 µM) and NADPH”
as §4, §5, §6, §7
consumption of NADPH at 340 nm upon addition of enzyme via a Cary 50 UV-Vis spectrophotometer (Agilent Technologies). Rates were determined from linear regression fits to the initial linear portion of the curves. All measurements were performed in triplicate. The IC50 values for inhibitors were obtained by plotting the percentage inhibition versus the inhibitor concentration and fitting to the Morrison equation16 (equation 1) using Origin 9.0 Software (OriginLab, Northampton, MA).
E + I + K!"" − E + I + K!"" ! − 4[E][I] where v0 is the enzyme activity without inhibitor, vi is the enzyme activity with ligand

[4] = Kinetic solubility in PBS, pH 7.4 (2% DMSO); assay type: physicochemical; conditions: for solubility at 2 h: PBS with 2% DMSO, pH 7.4, aqueous buffer, kinetic from dmso stock, PBS, pH 7.4 (2% DMSO)

T1 sequence (Q84HF5 whole entry C252S/C461S): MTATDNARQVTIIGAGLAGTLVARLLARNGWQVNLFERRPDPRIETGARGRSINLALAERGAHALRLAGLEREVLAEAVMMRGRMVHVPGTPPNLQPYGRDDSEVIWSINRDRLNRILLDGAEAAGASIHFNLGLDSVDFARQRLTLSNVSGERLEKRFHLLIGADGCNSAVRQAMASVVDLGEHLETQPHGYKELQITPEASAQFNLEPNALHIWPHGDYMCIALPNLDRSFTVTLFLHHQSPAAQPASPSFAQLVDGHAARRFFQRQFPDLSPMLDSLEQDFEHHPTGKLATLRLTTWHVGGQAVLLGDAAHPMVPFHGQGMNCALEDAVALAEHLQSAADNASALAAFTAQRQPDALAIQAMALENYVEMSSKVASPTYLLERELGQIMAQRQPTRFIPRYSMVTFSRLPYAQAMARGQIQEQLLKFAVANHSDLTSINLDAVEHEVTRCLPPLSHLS
T2 sequence (O15229 whole entry): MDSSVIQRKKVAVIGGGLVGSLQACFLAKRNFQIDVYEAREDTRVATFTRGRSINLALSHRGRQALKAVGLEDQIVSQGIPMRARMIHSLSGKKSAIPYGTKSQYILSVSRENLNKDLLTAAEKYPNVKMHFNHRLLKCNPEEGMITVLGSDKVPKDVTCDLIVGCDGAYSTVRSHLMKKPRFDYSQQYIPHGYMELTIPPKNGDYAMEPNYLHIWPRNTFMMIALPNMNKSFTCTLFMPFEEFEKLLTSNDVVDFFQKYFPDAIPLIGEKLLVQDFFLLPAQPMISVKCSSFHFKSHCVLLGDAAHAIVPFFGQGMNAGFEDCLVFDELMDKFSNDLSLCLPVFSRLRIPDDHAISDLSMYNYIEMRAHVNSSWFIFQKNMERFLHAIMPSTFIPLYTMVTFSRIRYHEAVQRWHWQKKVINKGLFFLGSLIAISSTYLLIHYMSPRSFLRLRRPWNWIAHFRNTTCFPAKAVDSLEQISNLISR

Row | Structure (SMILES) | Mean FL2-A, compound + riboflavin (RF) ([1]; time 1) | Mean FL2-A, compound + riboflavin (RF) ([1]; time 2) | Mean FL2-A, compound + riboflavin (RF) ([1]; time 3) | Inhibition of riboflavin uptake [1] | Mean FL2-A, compound only ([1]; time 1) | Mean FL2-A, compound only ([1]; time 2) | Mean FL2-A, compound only ([1]; time 3) | IC50 [2] [µM] | IC50 [3] [µM] | solubility at 2 h ([4]; read-out: Solubility Mean) [µM] | solubility at 2 h ([4]; read-out: Solubility n=1) [µM] | solubility at 2 h ([4]; read-out: Solubility n=2) [µM] | Kinetic solubility (in words) [4]
1 | COC(=O)CN1C(=O)COc2cc(C)c(Cl)c(C)c21 [1a] | 66.6886 | 77.0559 | 76.3441 | inhibit riboflavin uptake | 62.8068 | 65.3939 | 65.9534 | > 500 | ~500 | – | – | – | –
2 | Cn1c(C(=O)N[C@@H](C(=O)O)c2ccccc2)cc2cc(F)ccc21 [compound 5, (R)-2-(5-fluoro-1-methyl-1H-indole-2-carboxamido)-2-phenylacetic acid] | – | – | – | – | – | – | – | 123 ± 8 | 55.3 | 185 (≈ 60.4 µg/mL) | 186 (≈ 60.7 µg/mL) | 183 (≈ 59.7 µg/mL) | –
3 | Cc1cc2c(c(C)c1Cl)N(CC(=O)OC(C)C)C(=O)CO2 [1c] | 59.0947 | 60.924 | 73.4972 | inhibit riboflavin uptake | 60.7763 | 66.3048 | 65.3995 | > 300 | > 300 | – | – | – | –
4 | CCOC(=O)CN1C(=O)COc2cc(C)c(Cl)c(C)c21 [1b] | 68.4214 | 59.9856 | 60.5407 | inhibit riboflavin uptake; also recorded: higher inhibition | 59.4089 | 74.4694 | 63.9701 | > 300 | > 500 | – | – | – | –
5 | Cc1cc2c(c(C)c1Cl)N(CC(=O)O)C(=O)CO2 [compound 1, (6-chloro-5,7-dimethyl-3-oxo-2,3-dihydro-4H-1,4-benzoxazin-4-yl) acetic acid] | 57.8501 | 68.195 | 76.5831 | inhibit riboflavin uptake | 58.5977 | 60.0072 | 67.7034 | – | – | 193 (≈ 52 µg/mL) | 191 (≈ 51.5 µg/mL) | 194 (≈ 52.3 µg/mL) | good
6 | CC(CSc1ccc(Cl)cc1)C(=O)O (stereo not shown) [compound 6, 3-[(4-chlorophenyl)thio]-2-methylpropanoic acid] | – | – | – | – | – | – | – | 85.6 ± 4.4 | 68.6 | 187 (≈ 43.1 µg/mL) | 186 (≈ 42.9 µg/mL) | 188 (≈ 43.4 µg/mL) | –
7 | Cc1cc2c(c(C)c1Cl)N(Cc1nn[nH]n1)C(=O)CO2 [1h, 6-chloro-5,7-dimethyl-4-(2H-tetrazol-5-ylmethyl)-1,4-benzoxazin-3-one] | – | – | – | – | – | – | – | 17 ± 0.43 | 1.28 ± 0.08 | – | – | – | –
8 | Oc1ccc(-c2csc3nc(-c4ccccc4)nn23)c(O)c1 [compound 3, 4-(2-phenyl[1,2,4]triazolo[5,1-b][1,3]thiazol-6-yl)benzene-1,3-diol] | – | – | – | – | – | – | – | 74.7 ± 8 | 2.3 | 67 (≈ 20.7 µg/mL) | 68 (≈ 21 µg/mL) | 65 (≈ 20.1 µg/mL) | –
